Measurements as given in patent publication US11739051B2 (ALEXION PHARMA INTERNATIONAL OPERATIONS UNLIMITED COMPANY, priority 2018, dated 2023).

Key:
[1] = Particle size distribution (PSD) by LALLS; assay type: physicochemical; settings: for Dx (10)/μm: 10th percentile of particle size, paraffin oil dispersion; for Dx (50)/μm: 50th percentile of particle size; for Dx (90)/μm: 90th percentile of particle size; for >100 μm (%): percentage of particles greater than 100 μm; for <2 μm (%): percentage of particles less than 2 μm
Description: As used herein, the term “Dx(10)/μm” refers to the 10th percentile of particle size (D10) measured in micrometers (μm). As used herein, the terms “Dx(50)/μm” or “median particle size” refer to the 50th percentile particle size (D50). As used herein, the term “Dx(90)/μm” refers to the 90th percentile of particle size (D90).
As used herein, the term “<2 μm (%)” refers to the percentage (%) of particles that are less than 2 μm. As used herein, the term “>100 μm (%)” refers to the percentage (%) of particles that are greater than 100 μm. As used herein, the percentage of particles refers to the percentage based on the population, or number, of particles.
The sample dispersion medium was paraffin oil. […] This was repeated until a stable reading was obtained.
The PSD measurements were done using the following settings: background measurement time, 20 seconds(s); sample measurement time, 20 s; dispersant refractive index, 1.45; particle refractive index, N/A (Fraunhofer), absorption, N/A (Fraunhofer); stirrer speed, 2500 rpm; analysis model: general purpose.

[2] = Specific surface area (SSA) by BET; assay type: physicochemical; settings: N2 adsorption
Method: As used herein, the ten “SSA (m^2/g)” refers to specific surface area (SSA) measured in square meters (m^2) per gram (g). SSA was measured by BET according to the method described in Example 4.
Specific Surface Area (SSA) was analyzed by BET on a surface area analyzer (Gemini 2375™ from Micromeritics Instrument Corp.). […] Each sample was filled into a glass tube and “degassed” at 30° C. for 1 h under continuous N2 (g) flow in order to remove all loosely bound molecules on the external surface and from potential channels in the material. Simultaneously, the saturation pressure for the liquid nitrogen used was determined. After weighing the degassed samples, the degassed samples were inserted into the measuring position at −196° C. (boiling point for liquid nitrogen), evacuated and then exposed to a range of partial pressures basically covering the whole range from almost zero to close to 1 under adsorption mode. The lower pressures were used for SSA determination. Higher pressures were used for potential micro pore determination. In order to ascribe the right amount of nitrogen to the substances, the free volume in the tubes was measured with helium gas prior to nitrogen adsorption. The appropriate thickness values for the adsorbed layer (above the point where no absorption took place in micro pores anymore) was determined from a t-plot and subsequently used to correct the calculation by separating the adsorbed nitrogen molecules into either absorbed into potential pore like structures (the “micro pore volume”) or adsorbed onto actual external surface.

[3] = Stability of crystalline particles after forced degradation at 40° C. and 75% relative humidity (HPLC impurities); assay type: physicochemical; settings: listed as A-2
Method: Stability analysis was performed on crystalline particles after forced degradation at 40° C. and 75% relative humidity over 3 days.

[4] = Crystallinity by X-ray powder diffraction (XRPD); assay type: physicochemical; settings: AREAcryst/AREAtotal*100, listed as A-2
Method: Crystallinity was analyzed by X-ray powder diffraction (XRPD) using a Cu-anode (45 kV/40 mA), a Kα-1 monochromator and silicon-based position-sensitive 1D detector (Malvern Panalytical, X'Celerator™). The 2-theta range was 2-35° using a scan speed of 0.02°/s and a step size of 0.017°. Slow spinning sample holders were used. […] Each sample was smeared out using a Teflon bar, producing a flat powdered surface on zero background wafers of silicon (Si). The measurements were performed using a programmable incident divergence slit.
The crystallinity was evaluated using Panalytical HighScore Plus™ software (The HighScore suite; T. Degen, M. Sadki, E. Bron, U. König, G. Nénert; Powder Diffraction, Volume 29, Supplement S2, December 2014, pp S13-S18). This method is based on the following steps: 1) Calculation of the net area of the signals from the crystalline part of the sample. This area is defined as “AREAcryst.” 2) Calculation of the net total area, that is, area from the amorphous “humps” plus the net peak area from step 1. This area is defined as “AREAtotal.” In the calculation of above areas, an automatic correction of the background is made by using data collected for an empty sample holder. 3) The percent crystallinity of the sample is calculated as: (AREAcryst/AREAtotal)*100.
XRPD crystallinity results for each batch are reported Table 1.

[5] = 5 g lab-scale Process C crystallization; for D10 (μm) / D50 (μm) / D90 (μm): ethanol charge time and temperature vary per example; for >100 (%): particles greater than 100 μm; for <2 (%): particles less than 2 μm; for D90/D50: ratio of D90 to D50
Method: Particle size distribution (PSD) was analyzed by LALLS on a commercial laser particle size analyzer (Malvern Instruments Ltd. Mastersizer 3000™) instrument, equipped with a 300 mm reverse Fourier lens with a small volume automated liquid sample dispersion unit (Malvern, Hydro MV™). The sample dispersion medium was paraffin oil. Samples taken from each of the batches were analyzed sequentially. Each sample was introduced directly into the small volume sample dispersion unit to study the disaggregation under influence of stirring only. Thereafter sonication was applied at low power (20%) in 60 seconds. This was repeated until a stable reading was obtained.
(§1) Each mixture was then transferred to a 250 mL lab reactor via a series of 0.45 and 0.22 μm HPLC filters for polish filtration, and 2×1 mL water was used for rinsing (total amount water added: 19 mL, which gives an ethanol amount of 76 mL for an ethanol/water end-ratio of 80/20). After heating of the mixture to correct jacket temperature (35° C., 45° C., 50° C. or 55° C.), ethanol (76 mL) was charged for 1, 2.5 or 4 hours. A syringe pump connected to a 50-mL plastic syringe was used for the charging. Linear cooling profiles were then applied and all examples were cooled at a rate of 0.333° C./min down to 15° C. All mixtures were stirred for an additional 10 minutes at 15° C. before isolation of the solid on a P3 glass filter funnel. In example 8, the same conditions as described above were used, but the speed of the stirrer of the lab reactor was doubled. In example 10, the same conditions as described above were used, but a type different stirrer was used that increased the mass transfer in the lab reactor.

[6] = isolated solid after 5 g lab-scale Process C crystallization
Method: Purity was analyzed by reverse-phase high-performance liquid chromatography (HLPC) using Agilent® 1100 series HPLC system and a reversed-phase column (Aquasil C18, 4.6×250 mm, 5 μm) at 25°, with the absorbance detector set to 242 or 301 nm. […] The amount of BC-TTM and impurities in the sample solution was determined by the regression line and the area of the standard peaks in the sample chromatogram.
as §1

Substance	D10 (μm) [5] [μm]	D50 (μm) [5] [μm]	D90 (μm) [5] [μm]	>100 (%) [5] [%]	<2 (%) [5] [%]	D90/D50 [5]	TM2 (% w/w) [6] [% w/w]	TM3 (% w/w) [6] [% w/w]	Total impurities (% w/w) [6] [% w/w]	further results
bis-choline tetrathiomolybdate [Batch A-1]										Dx (10)/μm ([1]; listed as A-1): 10.3 μm; Dx (50)/μm ([1]; listed as A-1): 59.4 μm; Dx (90)/μm ([1]; listed as A-1): 503 μm; >100 μm (%) ([1]; listed as A-1): 42.1%; <2 μm (%) ([1]; listed as A-1): 2%; SSA (m^2/g) ([2]; listed as A-1): 0.52 m^2/g
bis-choline tetrathiomolybdate [Batch A-2]										Dx (10)/μm ([1]; listed as A-2): 25.5 μm; Dx (50)/μm ([1]; listed as A-2): 86.6 μm; Dx (90)/μm ([1]; listed as A-2): 442.0 μm; >100 μm (%) ([1]; listed as A-2): 46.8%; <2 μm (%) ([1]; listed as A-2): 0.0%; Mo2S6O2 dimer (area %) ([3]; Day 3, 40° C. / 75% RH): 0.09 area %; TM2 (area %) ([3]; Day 3, 40° C. / 75% RH): 2.38 area %; TM3 (area %) ([3]; Day 3, 40° C. / 75% RH): 2.78 area %; Total impurities (area %) ([3]; Day 3, 40° C. / 75% RH): 5.54 area %; TM2 (area %) ([3]; Initial): 0.29 area %; TM3 (area %) ([3]; Initial): 2.04 area %; Total impurities (area %) ([3]; Initial): 2.34 area %; Estimated Crystallinity (%) [4]: 86%; SSA (m^2/g) ([2]; listed as A-2): 0.26 m^2/g
bis-choline tetrathiomolybdate [Batch C-3]										Dx (10)/μm ([1]; listed as C-3): 25.7 μm; Dx (50)/μm ([1]; listed as C-3): 52.9 μm; Dx (90)/μm ([1]; listed as C-3): 97.7 μm; >100 μm (%) ([1]; listed as C-3): 9.2%; <2 μm (%) ([1]; listed as C-3): 1.0%; SSA (m^2/g) ([2]; listed as C-3): 0.12 m^2/g
bis-choline tetrathiomolybdate [compound 1]	21	45	77	1.4	1.3	1.7	<0.05	0.18	0.18	
bis-choline tetrathiomolybdate [compound 2]	25	46	79	1.9	1.4	1.7	0.13	0.45	0.57	
bis-choline tetrathiomolybdate [compound 3]	37	79	135	30	0.4	1.7	<0.05	0.14	0.14	
bis-choline tetrathiomolybdate [compound 4]	33	56	92	5.8	0.8	1.6	0.19	0.46	0.70	
bis-choline tetrathiomolybdate [compound 5]	38	80	136	31	0.0	1.7	<0.05	0.18	0.18	
bis-choline tetrathiomolybdate [compound 6]	42	87	148	38	0.0	1.7	<0.05	0.19	0.19	
bis-choline tetrathiomolybdate [compound 7]	41	85	143	36	0.0	1.7	<0.05	0.18	0.18	
bis-choline tetrathiomolybdate [compound 8]	57	102	164	52	0.0	1.6	<0.05	0.18	0.18	
bis-choline tetrathiomolybdate [compound 9]	33	61	101	11	1.0	1.7	0.12	0.25	0.37	
bis-choline tetrathiomolybdate [compound 10]	50	95	161	45	0.0	1.7	<0.05	0.16	0.16	
